Data on 1 compound can be found in ChEMBL document CHEMBL1151408 (J Nat Prod, 1983).

For assay [1], the species on record is Mus musculus. Briefly: Increase in hepatic ethylmorphine N-demethylase activity in mouse. The format is functional.
Assay [2] is filed under the species Mus musculus. Kind of assay: Increase in aryl hydrocarbon hydroxylase activity in mouse. It is filed as functional.

On to `CO[C@H]1/C=C/O[C@@]2(C)Oc3c(C)c(O)c4c(O)c(c(/C=N/N5CCN(C)CC5)c(O)c4c3C2=O)NC(=O)/C(C)=C\C=C\[C@H](C)[C@H](O)[C@@H](C)[C@@H](O)[C@@H](C)[C@H](OC(C)=O)[C@@H]1C` [RIFAMPIN], for which the Activity was determined as 85% in the assay listed under Mus musculus [1] and 174% in the assay filed under Mus musculus [2].
